Where a SMILES comes first, the peptide text is derived from it. [ ]: non-standard residue; d: D form. pGlu = O=C1CC[C@@H](C(=O)O)N1

These results are taken from patent US5112810A, “Method for treating multiple sclerosis” (Mitsui Pharmaceuticals, Inc., priority 1981, dated 1992).

The series concerns male Hartley guinea pig. The series can be described thus: Toxicity (Experiment 3). The series is classed as in vivo. The settings on record: FTS 100 mg/kg. The procedure:
Toxicity was studied by treating a male Hartley guinea pig with FTS at a dose of 100 mg/kg and observing the animal for one-week. This animal was still alive at the end of one-week observation period.

In the case of `C[C@H](NC(=O)[C@@H]1CCC(=O)N1)C(=O)N[C@@H](CCCCN)C(=O)N[C@@H](CO)C(=O)N[C@@H](CCC(N)=O)C(=O)NCC(=O)NCC(=O)N[C@@H](CO)C(=O)N[C@@H](CC(N)=O)C(=O)O` [FTS, p-Glu-Ala-Lys-Ser-Gln-Gly-Gly-Ser-Asn-Oh] ([pGlu]AKSQGGSN-OH), the “Toxicity: survival at the end of one-week observation” value is reported as “still alive”.
